Among the data in patent US12679848B2, “Plasma kallikrein inhibitors” (Merck Sharp & Dohme LLC, priority 2020, dated 2026) are IC50 values, retold here.

pIC50: −log10 of the molar value.

One assay concerns the target human factor XIa (Homo sapiens, UniProt P03951). Nature of the assay: Factor XIa Assay. As to conditions: human factor XIa 0.04 nM, substrate GPR-AFC, 30 min pre-incubation, 25° C., pH 7.4; read-out: FXIa IC50. The class given is biochemical. On the procedure: (§1) The effectiveness of a compound of the present invention as an inhibitor of Coagulation factor XIa can be determined using a relevant purified serine protease, and an appropriate synthetic substrate. The rate of hydrolysis of the chromogenic or fluorogenic substrate by the relevant serine protease was measured both in the absence and presence of compounds of the present invention. Assays were conducted at rt or at 37° C. […] A decrease in the rate of fluorescence change in the presence of inhibitor is indicative of enzyme inhibition. Such methods are known to one skilled in the art. The results of this assay are expressed as the half-maximal inhibitory concentrations (IC50), or the inhibitory constant, Ki.
Compounds were pre-incubated for 30 min at 25° C. with human (0.04 nM) factor XIa in 50 mM HEPES buffer with 150 mM sodium chloride, 5 mM calcium chloride, 0.1% PEG 8000, pH 7.4. factor XIa enzymatic activity was determined by addition of the substrate glycine-proline-arginine-7-amido-4-trifluoromethylcoumarin (GPR-AFC) and measurement of the fluorescence at 400/505 nm after a 60 min incubation at 25° C. The % inhibition for each data point was calculated from the data and analyzed using the log (inhibitor) vs. response four parameters equation to determine the half-maximal inhibitory concentrations (IC50). The IC50 were converted to equilibrium inhibitory constants (Ki) using the Cheng-Prusoff equation.

A further assay concerns the target T1, Human plasma kallikrein (Homo sapiens, UniProt P03952).
T1 construct: yields a heavy chain (371 amino acids) and a light chain (248 amino acids); The active site of plasma kallikrein is contained in the light chain; purchased Enzyme Research Laboratories
Put plainly: Plasma Kallikrein Assay. The class given is biochemical. As to conditions: purified Human plasma kallikrein 0.5 nM, substrate Acetyl-K-P-R-AFC, HEPES pH 7.4; read-out: PKal IC50. On the procedure: as §1, with “plasma kallikrein” for “Coagulation factor XIa”
Plasma kallikrein determinations were made in 50 mM HEPES buffer at pH 7.4 containing 150 mM NaCl, 5 mM CaCl2), and 0.1% PEG 8000 (polyethylene glycol; Fisher Scientific). Determinations were made using purified Human plasma kallikrein at a final concentration of 0.5 nM (Enzyme Research Laboratories) and the synthetic substrate, Acetyl-K—P—R-AFC (Sigma #C6608) at a concentration of […].
Times required to achieve equilibration between enzyme and inhibitor were determined in control experiments. […] IC50 was determined by inflection point from a four parameter logistic curve fit. Ki was calculated using the Cheng Prusoff equation, Ki=IC50/[…](1+([S]/Km)).

Sequence of human factor XIa (P03951 388-625 limits assumed): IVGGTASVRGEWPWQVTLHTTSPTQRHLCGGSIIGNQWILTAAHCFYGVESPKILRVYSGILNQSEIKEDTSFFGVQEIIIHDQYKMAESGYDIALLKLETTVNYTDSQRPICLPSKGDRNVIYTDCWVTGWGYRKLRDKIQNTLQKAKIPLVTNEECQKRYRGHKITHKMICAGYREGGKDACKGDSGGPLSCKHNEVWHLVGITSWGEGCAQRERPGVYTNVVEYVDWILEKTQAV
Sequence of human factor XIa (P03951 19-387 partner limits assumed): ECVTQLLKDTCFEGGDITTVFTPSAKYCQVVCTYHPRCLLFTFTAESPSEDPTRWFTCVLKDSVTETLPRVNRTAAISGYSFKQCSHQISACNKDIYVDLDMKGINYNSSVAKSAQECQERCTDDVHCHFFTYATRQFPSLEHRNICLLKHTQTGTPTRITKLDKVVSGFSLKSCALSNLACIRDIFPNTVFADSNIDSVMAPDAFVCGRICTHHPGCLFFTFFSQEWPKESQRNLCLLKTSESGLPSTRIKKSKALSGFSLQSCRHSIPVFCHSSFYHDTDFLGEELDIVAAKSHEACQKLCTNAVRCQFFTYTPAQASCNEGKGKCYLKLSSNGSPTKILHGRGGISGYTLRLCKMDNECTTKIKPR
T1 sequence (P03952 391-638 limits assumed): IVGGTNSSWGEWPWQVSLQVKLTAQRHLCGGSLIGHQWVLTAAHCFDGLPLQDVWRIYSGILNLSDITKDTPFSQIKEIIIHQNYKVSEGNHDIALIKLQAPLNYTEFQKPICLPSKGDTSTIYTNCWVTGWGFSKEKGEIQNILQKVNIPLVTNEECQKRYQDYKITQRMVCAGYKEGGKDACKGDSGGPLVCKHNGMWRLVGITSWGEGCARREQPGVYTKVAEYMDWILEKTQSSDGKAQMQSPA
T1 sequence (P03952 20-390 partner limits assumed): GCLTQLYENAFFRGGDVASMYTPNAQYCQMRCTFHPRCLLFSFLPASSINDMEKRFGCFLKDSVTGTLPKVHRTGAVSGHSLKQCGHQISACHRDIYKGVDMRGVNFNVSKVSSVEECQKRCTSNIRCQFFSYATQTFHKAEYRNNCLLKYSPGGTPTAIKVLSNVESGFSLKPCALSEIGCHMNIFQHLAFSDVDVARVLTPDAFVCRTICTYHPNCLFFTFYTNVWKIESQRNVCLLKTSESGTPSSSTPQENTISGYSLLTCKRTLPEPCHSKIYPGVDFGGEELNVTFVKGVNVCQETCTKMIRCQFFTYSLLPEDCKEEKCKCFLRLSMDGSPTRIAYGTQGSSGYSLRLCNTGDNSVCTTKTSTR

Turning to `CCC(n1ncc(C(=O)N2CC(C)(C)C[C@@]3(C2)OC(=O)Nc2ccc(Cl)c(F)c23)c1N)C(F)(F)F` (single isomer, unassigned) [Example 130, (R)-1'-(5-Amino-1-((R or S)-1,1,1-trifluorobutan-2-y1)-1H-pyrazole-4-carbonyl)-6-chloro-5-fluoro-5',5'-dimethylspiro[benzo[d][1,3]oxazine-4,3'-piperidin]-2(1H)-one], the pIC50 was 8.10 on human factor XIa and 8.80 at Human plasma kallikrein.

`Nc1c(C(=O)N2CCC[C@@]3(C2)OC(=O)Nc2ccc(Cl)c(F)c23)cnn1CCOc1ccc(Cl)cc1` [Example 37, (R)-1'-(5-Amino-1-(2-(4-chlorophenoxy)ethyl)-1H-pyrazole-4-carbonyl)-6-chloro-5-fluorospiro[benzo[d][1,3]oxazine-4,3'-piperidin]-2(1H)-one]: the pIC50 at human factor XIa was 5.34; on Human plasma kallikrein, 7.98.

In the case of `Nc1c(C(=O)N2CCC[C@@]3(C2)OC(=O)Nc2ccc(Cl)c(F)c23)nnn1Cc1ccccc1` [Example 133, (R)-1′-(5-Amino-1-benzyl-1H-1,2,3-triazole-4-carbonyl)-6-chloro-5-fluorospiro[benzo[d][1,3]oxazine-4,3′-piperidin]-2(1H)-one], the values for the pIC50 on human factor XIa and on Human plasma kallikrein were 6.48 and 6.72, respectively.

As to `Nc1c(C(=O)N2CCC[C@@]3(C2)OC(=O)Nc2ccc(Cl)c(F)c23)cnn1-c1ccccc1Oc1ccccc1` [Example 96, (R)-1'-(5-Amino-1-(2-phenoxyphenyl)-1H-pyrazole-4-carbonyl)-6-chloro-5-fluorospiro[benzo[d][1,3]oxazine-4,3'-piperidin]-2(1H)-one], the pIC50 on human factor XIa is 5.86; on Human plasma kallikrein, 8.96.

Take `Nc1c(C(=O)N2CCC[C@@]3(C2)OC(=O)Nc2ccc(Cl)c(F)c23)cnn1Cc1ccc(F)c(F)c1` [Example 33, (R)-1'-(5-Amino-1-(3,4-difluorobenzy1)-1H-pyrazole-4-carbonyl)-6-chloro-5-fluorospiro[benzo[d][1,3]oxazine-4,3'-piperidin]-2(1H)-one]: the figures for the pIC50 at human factor XIa and at Human plasma kallikrein were 6.36 and 9.00, respectively.

As to `Nc1c(C(=O)N2CCC[C@@]3(C2)OC(=O)Nc2ccc(Cl)c(F)c23)cnn1-c1ccc(C(=O)O)cc1` [Example 74, (R)-4-(5-Amino-4-(6-chloro-5-fluoro-2-oxo-1,2-dihydrospiro[benzo[d][1,3]oxazine-4,3'-piperidine]-l'-carbonyl)-1H-pyrazol-1-yl)benzoic acid], the figures for the pIC50 on human factor XIa and at Human plasma kallikrein were 6.42 and 8.08, respectively.

For the molecule `Nc1c(C(=O)N2CCC[C@@]3(C2)OC(=O)Nc2ccc(Cl)c(F)c23)cnn1-c1ccccc1Br` [Example 83, (R)-1'-(5-Amino-1-(2-bromophenyl)-1H-pyrazole-4-carbonyl)-6-chloro-5-fluorospiro[benzo[d][1,3]oxazine-4,3'-piperidin]-2(1H)-one], the pIC50 at human factor XIa was 6.06; at Human plasma kallikrein, 7.45.

In the case of `Nc1c(C(=O)N2CCC[C@@]3(C2)OC(=O)Nc2ccc(Cl)c(F)c23)cnn1-c1cccc(F)c1OC(F)F` [Example 107, (R)-1'-(5-Amino-1-(2-(difluoromethoxy)-3-fluorophenyl)-1H-pyrazole-4-carbonyl)-6-chloro-5-fluorospiro[benzo[d][1,3]oxazine-4,3'-piperidin]-2(1H)-one], the pIC50 at human factor XIa is 6.34; on Human plasma kallikrein it was 7.82.

With `CCOC(=O)c1ccc(C)c(-n2ncc(C(=O)N3CCC[C@@]4(C3)OC(=O)Nc3ccc(Cl)c(F)c34)c2N)c1` [Example 70, Ethyl (R)-3-(5-amino-4-(6-chloro-5-fluoro-2-oxo-1,2-dihydrospiro[benzo[d][1,3]oxazine-4,3'-piperidine]-1'-carbonyl)-1H-pyrazol-1-y1)-4-methylbenzoate], the pIC50 was 5.94 at human factor XIa and 7.87 at Human plasma kallikrein.

Take `COC(=O)c1ccc(-n2ncc(C(=O)N3CCC[C@@]4(C3)OC(=O)Nc3ccc(Cl)c(F)c34)c2N)c(OC)c1` [Example 92, Methyl (R)-4-(5-amino-4-(6-chloro-5-fluoro-2-oxo-1,2-dihydrospiro[benzo[d][1,3]oxazine-4,3'-piperidine]-l'-carbonyl)-1H-pyrazol-1-yl)-3-methoxybenzoate]: the pIC50 is 5.77 at human factor XIa and 7.88 on Human plasma kallikrein.

`Nc1c(C(=O)N2CCC[C@@]3(C2)OC(=O)Nc2ccc(Cl)c(F)c23)cnn1C(C(F)(F)F)C1(F)CC1` (single isomer, unassigned) [Example 115, (R)-1'-(5-Amino-1-((S or R)-2,2,2-trifluoro-1-(1-fluorocyclopropyl)ethyl)-1H-pyrazole-4-carbonyl)-6-chloro-5-fluorospiro[benzo[d][1,3]oxazine-4,3'-piperidin]-2(1H)-one]: the pIC50 at human factor XIa is 7.38; at Human plasma kallikrein it was 9.22.

For the molecule `COCC(C)(n1ncc(C(=O)N2CCC[C@@]3(C2)OC(=O)Nc2ccc(Cl)c(F)c23)c1N)C(F)(F)F` (single isomer, unassigned) [Example 129], the results for the pIC50 at human factor XIa and at Human plasma kallikrein were 6.05 and 8.19, respectively.

As for `Nc1c(C(=O)N2CCC[C@@]3(C2)OC(=O)Nc2ccc(Cl)c(F)c23)cnn1-c1ccnc2ccc(F)cc12` [Example 60, (R)-1'-(5-Amino-1-(6-fluoroquinolin-4-y1)-1H-pyrazole-4-carbonyl)-6-chloro-5-fluorospiro[benzo[d][1,3]oxazine-4,3'-piperidin]-2(1H)-one], the pIC50 on human factor XIa is 6.22; at Human plasma kallikrein, 8.10.

On to `CC1(c2ccccc2-n2ncc(C(=O)N3CCC[C@@]4(C3)OC(=O)Nc3ccc(Cl)c(F)c34)c2N)CC1` [Example 98, (R)-1'-(5-Amino-1-(2-(1-methylcyclopropyl)phenyl)-1H-pyrazole-4-carbonyl)-6-chloro-5-fluorospiro[benzo[d][1,3]oxazine-4,3'-piperidin]-2(1H)-one], for which the pIC50 is 6.66 on human factor XIa and 8.08 on Human plasma kallikrein.

As to `Nc1c(C(=O)N2CCC[C@@]3(C2)OC(=O)Nc2ccc(Cl)c(F)c23)cnn1-c1ccccc1Cl` [Example 82, (R)-1'-(5-Amino-1-(2-chlorophenyl)-1H-pyrazole-4-carbonyl)-6-chloro-5-fluorospiro[benzo[d][1,3]oxazine-4,3'-piperidin]-2(1H)-one], the figures for the pIC50 at human factor XIa and on Human plasma kallikrein were 6.13 and 7.55, respectively.

For the molecule `COCC(C)(n1ncc(C(=O)N2CCC[C@@]3(C2)OC(=O)Nc2ccc(Cl)c(F)c23)c1N)C(F)(F)F` (single isomer, unassigned) [Example 128, (R)-1'-(5-Amino-1-((R or S)-1,1,1-trifluoro-3-methoxy-2-methylpropan-2-y1)-1H-pyrazole-4-carbonyl)-6-chloro-5-fluorospiro[benzo[d][1,3]oxazine-4,3'-piperidin]-2(1H)-one], the pIC50 on human factor XIa was 6.01; at Human plasma kallikrein, 8.33.

`CCn1ncc(C(=O)N2CCC[C@@]3(C2)OC(=O)Nc2ccc(Cl)c(F)c23)c1N` [Example 25, (R)-1'-(5-Amino-1-ethy1-1H-pyrazole-4-carbonyl)-6-chloro-5-fluorospiro[benzo[d][1,3]oxazine-4,3'-piperidin]-2(1H)-one]: the pIC50 at human factor XIa is 5.70; on Human plasma kallikrein it was 7.61.

In the case of `Cc1c(CO)cccc1-n1ncc(C(=O)N2CCC[C@@]3(C2)OC(=O)Nc2ccc(Cl)c(F)c23)c1N` [Example 63, (R)-1'-(5-Amino-1-(3-(hydroxymethyl)-2-methylphenyl)-1H-pyrazole-4-carbonyl)-6-chloro-5-fluorospiro[benzo[d][1,3]oxazine-4,3'-piperidin]-2(1H)-one], the pIC50 at human factor XIa was 5.80; at Human plasma kallikrein, 7.54.

Turning to `Nc1c(C(=O)N2CCC[C@@]3(C2)OC(=O)Nc2ccc(Cl)c(F)c23)cnn1C(C(F)(F)F)C1(F)CC1` (single isomer, unassigned) [Example 114, (R)-1'-(5-Amino-1-((R or S)-2,2,2-trifluoro-1-(1-fluorocyclopropyl)ethyl)-1H-pyrazole-4-carbonyl)-6-chloro-5-fluorospiro[benzo[d][1,3]oxazine-4,3'-piperidin]-2(1H)-one], the pIC50 is 6.99 on human factor XIa and 8.55 on Human plasma kallikrein.

A word on the pIC50: it is the negative decadic logarithm of the IC50, by convention in mol/L.
